Experimental data from patent US12023335B2, “Method for treating pancreatic cancer” (PTC THERAPEUTICS, INC., priority 2018, dated 2024).

Columns and labels:
BMI-1 = assay: Western blot of BMI-1 levels in PDA cell lines; format: cell-based, human; conditions: Aspc1, MiaPaCa-2, Panc1 cells; 0.1 μM or 1.0 μM, 24 hours (FIG. 10a)
Description: (§1) Western blotting was carried out on lysates isolated from treated cells. Cells were lysed using RIPA buffer (50 mM Tris, pH 7.4, 150 mM NaCl, 1% Nonidet P-40, 0.1% SDS, 0.5% deoxycholate) supplemented with cOmplete™ EDTA-free Protease Inhibitor Cocktail (Sigma, 11836170001) and Halt™ Phosphatase Inhibitor Cocktail (ThermoFisher, 78420). Lysates were quantified using the Pierce BCA Protein Assay Kit (ThermoFisher, 23227), diluted in SDS sample buffer, resolved by SDS-PAGE (15-30 μg/sample), and transferred onto PVDF membranes. Membranes were blocked with 5% w/v nonfat dry milk in TBS-T (0.1% Tween20) and primary antibodies were incubated overnight at 4° C., diluted in 5% BSA in TBS-T at the indicated concentrations. HRP-conjugated secondary antibodies were incubated in blocking buffer for 1 hour at room temperature before detection using Super Digital-ECL™ substrate solution (Kindle Biosciences, R1002). (FIG. 5b, FIG. 10a and FIG. 11b)
Western Blot Antibodies: • Bmi1: Cell Signaling, #5856, 1:1000 • Vinculin: Cell Signaling, #4650S, 1:1000 • Beta-tubulin: Cell Signaling, #2146S, 1:1000 P-Glycoprotein Substrate Activity Experiment

CYCLIN B1 = assay: Western blot for CYCLIN B1 on tumors from KPC mice; format: in vivo; conditions: 10 mg/kg; biopsy 48 hours before first dose vs necropsy 24 hours after third dose (FIGS. 5b, 5c)
Description: as §1

`Cc1nc2ccc(F)cc2n1-c1nc(N)c(F)c(Nc2ccc(C(F)(F)F)cc2)n1` [Compound 1, 5-fluoro-2-(6-fluoro-2-methyl-1H-benzo[d]imidazol-1-yl)-N4-[4-(trifluoromethyl)phenyl]pyrimidine-4,6-diamine] was tested, and the “BMI-1 levels relative to vinculin” value (BMI-1) was “consistent reduction in BMI-1 protein expression in various cell types” and the “CYCLIN B1 normalized to VINCULIN in tumors” value (CYCLIN B1) was “consistent reduction in Cyclin B1 relative to Vinculin”.
